PubChem BioAssay (NCI)
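Briefly, cells in 96-well plates were exposed to five compound concentrations for 48 h, and endpoints were estimated by linear interpolation. Here, GI50 denotes the concentration required for 50% inhibition of growth. TGI: total growth inhibition.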

What was measured:
Test in all cases: NCI tumour cell line growth inhibition, 48 h
786-0 renal = system: 786-0 renal
A498 renal = system: A498 renal
A549 NSCLC = system: A549 NSCLC
ACHN renal = system: ACHN renal
BT-549 breast = system: BT-549 breast
CAKI-1 renal = system: CAKI-1 renal
CCRF-CEM leukemia = system: CCRF-CEM leukemia
COLO 205 colon = system: COLO 205 colon
DU-145 prostate = system: DU-145 prostate
EKVX NSCLC = system: EKVX NSCLC
HCC-2998 colon = system: HCC-2998 colon
HCT-116 colon = system: HCT-116 colon
HCT-15 colon = system: HCT-15 colon
HL-60(TB) leukemia = system: HL-60(TB) leukemia
HOP-62 NSCLC = system: HOP-62 NSCLC
HOP-92 NSCLC = system: HOP-92 NSCLC
HS 578T breast = system: HS 578T breast
HT29 colon = system: HT29 colon
IGROV1 ovarian = system: IGROV1 ovarian
K-562 leukemia = system: K-562 leukemia
KM12 colon = system: KM12 colon
LOX IMVI melanoma = system: LOX IMVI melanoma
M14 melanoma = system: M14 melanoma
MALME-3M melanoma = system: MALME-3M melanoma
MCF7 breast = system: MCF7 breast
MDA-MB-231 breast = system: MDA-MB-231 breast
MDA-MB-435 = system: MDA-MB-435
MOLT-4 leukemia = system: MOLT-4 leukemia
NCI-H226 lung = system: NCI-H226 lung
NCI-H23 lung = system: NCI-H23 lung
NCI-H460 lung = system: NCI-H460 lung
NCI-H522 lung = system: NCI-H522 lung
NCI/ADR-RES ovarian = system: NCI/ADR-RES ovarian
OVCAR-3 ovarian = system: OVCAR-3 ovarian
OVCAR-4 ovarian = system: OVCAR-4 ovarian
OVCAR-5 ovarian = system: OVCAR-5 ovarian
OVCAR-8 ovarian = system: OVCAR-8 ovarian
PC-3 prostate = system: PC-3 prostate
RPMI-8226 leukemia = system: RPMI-8226 leukemia
RXF 393 renal = system: RXF 393 renal
SF-268 CNS = system: SF-268 CNS
SF-295 CNS = system: SF-295 CNS
SF-539 CNS = system: SF-539 CNS
SK-MEL-2 melanoma = system: SK-MEL-2 melanoma
SK-MEL-28 melanoma = system: SK-MEL-28 melanoma
SK-MEL-5 melanoma = system: SK-MEL-5 melanoma
SK-OV-3 ovarian = system: SK-OV-3 ovarian
SN12C renal = system: SN12C renal
SNB-19 CNS = system: SNB-19 CNS
SNB-75 CNS = system: SNB-75 CNS
SR leukemia = system: SR leukemia
SW-620 colon = system: SW-620 colon
T-47D breast = system: T-47D breast
TK-10 renal = system: TK-10 renal
U251 CNS = system: U251 CNS
UACC-257 melanoma = system: UACC-257 melanoma
UACC-62 melanoma = system: UACC-62 melanoma
UO-31 renal = system: UO-31 renal

Compound `C=CC(=O)N1CCN(c2nc(=O)n(-c3c(C)ccnc3C(C)C)c3nc(-c4c(O)cccc4F)c(F)cc23)[C@@H](C)C1` has a GI50 (786-0 renal) of 14.7 µM, a TGI (786-0 renal) of 36.3 µM and a GI50 (A498 renal) of 11.8 µM. For the same compound, the TGI (A498 renal) was > 54.1 µM, the GI50 (A549 NSCLC) was > 46.5 µM and the TGI (A549 NSCLC) was > 77.2 µM. For the same compound, the GI50 (ACHN renal) was 40.9 µM, the TGI (ACHN renal) was > 100 µM and the GI50 (BT-549 breast) was 15.8 µM. For the same compound, the TGI (BT-549 breast) was > 51.3 µM, the GI50 (CAKI-1 renal) was 40.3 µM and the TGI (CAKI-1 renal) was > 100 µM. The GI50 (CCRF-CEM leukemia) was 25.7 µM, the TGI (CCRF-CEM leukemia) was 83.1 µM and the GI50 (COLO 205 colon) was 39.9 µM. The TGI (COLO 205 colon) was > 100 µM, the GI50 (DU-145 prostate) was 30.9 µM and the TGI (DU-145 prostate) was 98.3 µM. For the same compound, the GI50 (EKVX NSCLC) was 48.6 µM, the TGI (EKVX NSCLC) was > 100 µM and the GI50 (HCC-2998 colon) was 19.1 µM. It also gave a TGI (HCC-2998 colon) of 35.9 µM, a GI50 (HCT-116 colon) of 15.1 µM and a TGI (HCT-116 colon) of 36.3 µM. The GI50 (HCT-15 colon) was 29.5 µM, the TGI (HCT-15 colon) was > 74.3 µM and the GI50 (HL-60(TB) leukemia) was 20.5 µM. For the same compound, the TGI (HL-60(TB) leukemia) was 53.8 µM, the GI50 (HOP-62 NSCLC) was < 0.0291 µM and the TGI (HOP-62 NSCLC) was > 66.5 µM. The GI50 (HOP-92 NSCLC) was 29.8 µM, the TGI (HOP-92 NSCLC) was > 58.8 µM and the GI50 (HS 578T breast) was 45.7 µM. The TGI (HS 578T breast) was > 100 µM, the GI50 (HT29 colon) was 35.9 µM and the TGI (HT29 colon) was > 100 µM. For the same compound, the GI50 (IGROV1 ovarian) was > 44.7 µM, the TGI (IGROV1 ovarian) was > 73.9 µM and the GI50 (K-562 leukemia) was 23.2 µM. The TGI (K-562 leukemia) was > 85 µM, the GI50 (KM12 colon) was 23.4 µM and the TGI (KM12 colon) was 54 µM. For the same compound, the GI50 (LOX IMVI melanoma) was 16.9 µM, the TGI (LOX IMVI melanoma) was 38.1 µM and the GI50 (M14 melanoma) was 17 µM. The TGI (M14 melanoma) was > 52.6 µM, the GI50 (MALME-3M melanoma) was 20.8 µM and the TGI (MALME-3M melanoma) was 64 µM. The GI50 (MCF7 breast) was 34.1 µM, the TGI (MCF7 breast) was > 100 µM and the GI50 (MDA-MB-231 breast) was 25.4 µM. It also gave a TGI (MDA-MB-231 breast) of 85.2 µM, a GI50 (MDA-MB-435) of 25.1 µM and a TGI (MDA-MB-435) of 70 µM. For the same compound, the GI50 (MOLT-4 leukemia) was 18.7 µM, the TGI (MOLT-4 leukemia) was 71 µM and the GI50 (NCI-H226 lung) was 25.4 µM. The TGI (NCI-H226 lung) was > 100 µM, the TGI (NCI-H23 lung) was > 47.2 µM and the GI50 (NCI-H460 lung) was 43.4 µM. For the same compound, the TGI (NCI-H460 lung) was > 100 µM, the GI50 (NCI-H522 lung) was 29.8 µM and the TGI (NCI-H522 lung) was > 100 µM. For the same compound, the GI50 (NCI/ADR-RES ovarian) was > 100 µM, the TGI (NCI/ADR-RES ovarian) was > 100 µM and the GI50 (OVCAR-3 ovarian) was 30.1 µM. For the same compound, the TGI (OVCAR-3 ovarian) was > 86 µM, the GI50 (OVCAR-4 ovarian) was 35.8 µM and the TGI (OVCAR-4 ovarian) was > 100 µM. For the same compound, the GI50 (OVCAR-5 ovarian) was 62.9 µM, the TGI (OVCAR-5 ovarian) was > 100 µM and the GI50 (OVCAR-8 ovarian) was 30.9 µM. For the same compound, the TGI (OVCAR-8 ovarian) was > 100 µM, the GI50 (PC-3 prostate) was 31.8 µM and the TGI (PC-3 prostate) was > 96.3 µM. The GI50 (RPMI-8226 leukemia) was 18.1 µM, the TGI (RPMI-8226 leukemia) was > 90.9 µM and the GI50 (RXF 393 renal) was 17.7 µM. For the same compound, the TGI (RXF 393 renal) was 59.2 µM, the GI50 (SF-268 CNS) was 35.6 µM and the TGI (SF-268 CNS) was > 100 µM. For the same compound, the GI50 (SF-295 CNS) was 44.4 µM, the TGI (SF-295 CNS) was > 100 µM and the GI50 (SF-539 CNS) was 23.3 µM. The TGI (SF-539 CNS) was 64.2 µM, the GI50 (SK-MEL-2 melanoma) was 31 µM and the TGI (SK-MEL-2 melanoma) was > 78 µM. For the same compound, the GI50 (SK-MEL-28 melanoma) was > 58.7 µM, the TGI (SK-MEL-28 melanoma) was > 100 µM and the GI50 (SK-MEL-5 melanoma) was 27.8 µM. The TGI (SK-MEL-5 melanoma) was > 59.1 µM, the GI50 (SK-OV-3 ovarian) was > 77.8 µM and the TGI (SK-OV-3 ovarian) was > 100 µM. The GI50 (SN12C renal) was 38 µM, the TGI (SN12C renal) was > 100 µM and the GI50 (SNB-19 CNS) was 57.8 µM. For the same compound, the TGI (SNB-19 CNS) was > 100 µM, the GI50 (SNB-75 CNS) was 36.1 µM and the TGI (SNB-75 CNS) was > 91.4 µM. For the same compound, the GI50 (SR leukemia) was 17.3 µM, the TGI (SR leukemia) was 70.3 µM and the GI50 (SW-620 colon) was 36.8 µM. For the same compound, the TGI (SW-620 colon) was > 100 µM, the GI50 (T-47D breast) was 40.9 µM and the TGI (T-47D breast) was > 100 µM. For the same compound, the GI50 (TK-10 renal) was 23.8 µM, the TGI (TK-10 renal) was > 90.9 µM and the GI50 (U251 CNS) was 48.7 µM. The TGI (U251 CNS) was > 100 µM, the GI50 (UACC-257 melanoma) was > 56.2 µM and the TGI (UACC-257 melanoma) was > 100 µM. For the same compound, the GI50 (UACC-62 melanoma) was 28.4 µM, the TGI (UACC-62 melanoma) was > 73.6 µM and the GI50 (UO-31 renal) was > 62.3 µM. The TGI (UO-31 renal) was > 100 µM.
